# Results taken from paper PMC5014630 (Molecular pharmaceutics, 2016).
# Experiments:
# BCRP = molecular target: T1, BCRP (Homo sapiens, UniProt Q9UNQ0); experiment: Permeability with BCRP inhibitor Ko143 in iPSC-derived BMEC; assay type: in vitro ADME; details: 1 μM Ko143, 60 min pre-incubation; normalized to no inhibitor
# T1 sequence (Q9UNQ0 1-655): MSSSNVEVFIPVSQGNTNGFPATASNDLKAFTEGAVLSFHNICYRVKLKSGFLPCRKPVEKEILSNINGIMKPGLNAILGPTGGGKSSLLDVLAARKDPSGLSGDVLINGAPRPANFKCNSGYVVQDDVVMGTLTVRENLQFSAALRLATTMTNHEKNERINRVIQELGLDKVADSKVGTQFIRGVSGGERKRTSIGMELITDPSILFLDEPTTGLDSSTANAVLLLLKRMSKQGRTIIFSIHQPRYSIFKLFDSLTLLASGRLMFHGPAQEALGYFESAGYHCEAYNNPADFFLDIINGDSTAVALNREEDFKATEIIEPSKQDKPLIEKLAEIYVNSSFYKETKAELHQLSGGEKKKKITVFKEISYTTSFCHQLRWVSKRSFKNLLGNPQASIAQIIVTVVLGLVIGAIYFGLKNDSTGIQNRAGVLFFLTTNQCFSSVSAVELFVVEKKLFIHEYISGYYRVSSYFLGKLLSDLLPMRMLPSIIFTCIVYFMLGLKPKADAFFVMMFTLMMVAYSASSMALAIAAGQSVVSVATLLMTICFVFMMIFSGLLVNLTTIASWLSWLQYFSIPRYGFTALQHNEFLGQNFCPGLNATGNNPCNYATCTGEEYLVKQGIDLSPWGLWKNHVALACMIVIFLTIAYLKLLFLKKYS
# iPSC-derived BMECs [1] = experiment: Directional; assay type: in vitro ADME, human; details: normalized to AB permeability; Student's t-test
# iPSC-derived BMECs [2] = experiment: Temperature dependence of permeability; assay type: in vitro ADME, human; details: normalized to 37°C condition; Student's t-test
# [3] = Permeability across iPSC-derived BMEC Transwell in vitro BBB model; details: human
# MRPs = experiment: Permeability with pan-MRP inhibitor MK571 in iPSC-derived BMEC; assay type: in vitro ADME, human; details: 10 μM MK571, 60 min pre-incubation; normalized to no inhibitor
# P-gp = P-gp (Homo sapiens, UniProt P08183); experiment: Permeability with P-gp inhibitor PSC833 in iPSC-derived BMEC; assay type: in vitro ADME; details: 1 μM PSC833, 60 min pre-incubation; normalized to no inhibitor
# [4] = Experimental octanol/water LogD; assay type: physicochemical; details: pH 7.4, octanol:buffer
# iPSC-derived BMECs [5] = experiment: Permeability across iPSC-derived BMEC Transwell in vitro BBB model; details: for permeability (Pe) across iPSC-BMEC: Transwell, APC analogs 1 μM in PM20, 2 hours, mean±S.E., n≥3
# P-gp, sequence (P08183 whole entry): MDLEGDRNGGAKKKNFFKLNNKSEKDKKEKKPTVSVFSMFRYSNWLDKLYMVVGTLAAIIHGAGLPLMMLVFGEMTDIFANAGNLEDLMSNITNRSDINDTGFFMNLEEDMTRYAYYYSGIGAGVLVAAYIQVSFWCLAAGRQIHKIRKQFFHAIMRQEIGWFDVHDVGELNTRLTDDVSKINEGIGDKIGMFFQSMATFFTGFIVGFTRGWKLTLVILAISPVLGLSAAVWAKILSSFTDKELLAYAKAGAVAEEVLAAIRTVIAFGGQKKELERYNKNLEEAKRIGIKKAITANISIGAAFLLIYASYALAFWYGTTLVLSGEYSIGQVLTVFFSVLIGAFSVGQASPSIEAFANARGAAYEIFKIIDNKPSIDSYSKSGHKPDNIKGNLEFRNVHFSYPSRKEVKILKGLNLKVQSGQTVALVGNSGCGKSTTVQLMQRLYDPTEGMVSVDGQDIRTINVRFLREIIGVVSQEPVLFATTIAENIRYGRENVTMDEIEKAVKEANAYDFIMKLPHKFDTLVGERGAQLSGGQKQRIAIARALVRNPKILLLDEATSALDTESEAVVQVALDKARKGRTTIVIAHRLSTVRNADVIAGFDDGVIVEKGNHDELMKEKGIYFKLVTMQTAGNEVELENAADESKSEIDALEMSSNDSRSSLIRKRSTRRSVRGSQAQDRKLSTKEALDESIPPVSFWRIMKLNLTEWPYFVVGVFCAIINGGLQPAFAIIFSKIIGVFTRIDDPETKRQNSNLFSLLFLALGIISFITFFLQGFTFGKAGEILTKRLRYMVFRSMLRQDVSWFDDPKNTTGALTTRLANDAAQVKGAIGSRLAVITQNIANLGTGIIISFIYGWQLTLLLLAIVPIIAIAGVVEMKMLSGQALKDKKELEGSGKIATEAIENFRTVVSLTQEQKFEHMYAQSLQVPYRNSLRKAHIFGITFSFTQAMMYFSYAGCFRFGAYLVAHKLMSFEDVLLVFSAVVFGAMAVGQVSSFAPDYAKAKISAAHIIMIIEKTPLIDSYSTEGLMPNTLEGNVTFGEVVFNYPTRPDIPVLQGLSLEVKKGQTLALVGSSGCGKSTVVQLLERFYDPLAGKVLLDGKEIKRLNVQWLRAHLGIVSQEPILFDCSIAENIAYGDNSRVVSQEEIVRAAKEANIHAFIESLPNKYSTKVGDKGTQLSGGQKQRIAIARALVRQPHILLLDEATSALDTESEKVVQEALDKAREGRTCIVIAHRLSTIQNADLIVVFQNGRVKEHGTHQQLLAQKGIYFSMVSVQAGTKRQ
"Papp at 2 h, 1 μM [3] [×10⁻⁶ cm/s]",permeability change with PSC833 (P-gp inhibition) (P-gp),Structure (SMILES),permeability change with Ko143 (BCRP inhibition) (BCRP),"polarized flux, basolateral-apical (BA) vs apical-basolateral (AB) (iPSC-derived BMECs [1])",in vitro BBB permeability at 4°C compared to 37°C (iPSC-derived BMECs [2]),permeability change with MK571 (MRP inhibition) (MRPs),fold increase of experimental LogD compared to parent CLR1404 [4],permeability (Pe) across iPSC-BMEC (iPSC-derived BMECs [5]),"fold reduced permeability compared with CLR1501 (iPSC-derived BMECs [5]; iPSC-derived BMEC Transwell, p<0.05) [fold]"
5.83,did not affect,"C[N+](C)(C)CCOP(=O)([O-])OCCCCCCCCCCCCCCCCCCc1ccc(I)cc1 [CLR1404, 18-(p-iodophenyl) octadecylphosphocholine]",did not affect,no significant evidence of polarized efflux,"slight, but statistically insignificant, increase",did not affect,–,–,–
–,–,C[N+](C)(C)CCOP(=O)([O-])OCCCCCCCCCCCCCCCCCCc1ccc(C2=C3C=CC=[N+]3[B-](F)(F)n3cccc32)cc1 [CLR1501],selectively increased,significantly polarized flux in the brain-to-blood (BA) direction,significantly higher,selectively increased,greater than 2 fold,54±3.2 ×10^−5 cm/min,–
–,–,CN1/C(=C/C=C2\CCCC(/C=C/C3=[N+](C)c4ccccc4C3(C)C)=C2c2ccc(CCCCCCCCCCCCCCCCCCOP(=O)([O-])OCC[N+](C)(C)C)cc2)C(C)(C)c2ccccc21.[Cl-] [CLR1502],A similar pattern was observed,significantly polarized flux in the brain-to-blood (BA) direction,significantly higher,A similar pattern was observed,greater than 2 fold,26±4.9 ×10^−5 cm/min,2
